Results taken from patent publication US5733559A, “Controlled release inclusion system of glycolic acid in β-cyclo-dextrin and process for the above system preparation” (priority 1995, dated 1998).
Where “and” joins values, the source holds several entries; their conditions need not be identical. Identical values can stand only once.

Tests used:
[1] = system: cutaneous area (volar surfaces of the forearm); assay: Patch test (epicutaneous test): cutaneous irritation by occlusive application, average index of cutaneous irritation (IIM)
From the text: The first series of tests consisted in the test of cutaneous irritation or epicutaneous test (Patch Test) by means of occlusive application.
(§1) Free glycolic acid 70% (AG)--Du Pont
Ten healthy subjects were selected, of both sex, with negative anamnesis for allergic dermatitis by contact (DAC) and without any other pathology in process during the execution of the Test.
The ready to use plasters for dermoreactions used for the Patch Test were made of white "non woven fabric" with a dermatophilic mass of acrylic adhesive, in the shape of 1 cm diameter disc, covered by small squares of polyethylene.
The test was performed as follows: after cleansing with 70% alcoholic solution (denatured ethyl alcohol the cutaneous area to be treated (volar surfaces of the forearm), occlusive applications of the substance under examination were carried out for one hour. After that period, the plasters were removed and 15 minutes later the cutaneous reaction was evaluated and classified on the basis of an arbitrary scale.
The cutaneous reactions considered were:
According to the arbitrary scale used for the classification of the cutaneous reactions, 0 corresponds to the absence of reaction, 1 point to a light degree, 2 points to a moderate degree of reaction and 3 points to a reaction of serious gravity.
For each volunteer scores were recorded for each parameter and the mean value was calculated. […]

[2] = system: skin of the face (periocular and zygomatic zone); assay: Non occlusive application: cutaneous tolerability test on the face
Description: For the second series of tests cutaneous irritation was determined following non-occlusive applications.
Non occlusive application
as §1
Eight healthy volumary women were chosen, aged between 30 and 50 (average age 37,5).
The samples were applied on one half of the face (periocular and zygomatic zone) using a badger brush. The duration of the application was decided according to the type of skin and to the cutaneous reaction of the individual volunteer. 5 applications were carried out, one every three or more days according to the subjects.
The irritating effect was assessed before the application and one hour after the application.
The parameters considered to clinically evaluate the irritating degree of the substance under examination were the following:
irritative symptoms: erythema, pruritus, burning, desquamation, blistering, eczematous reaction.
The irritating effect was assessed on the basis of an arbitrary scale, based on clinical experience, recorded as follows:
1=Modest reaction (slight reddening, pruritus)
2=Irritative reaction (erythema, pruritus, desquamation)
3=Strong irritative reaction (erythema, burning, strong pruritus, desquamation, and more)
After every application the cutaneous reactions of each volunteer were evaluated and a relative score was given.

[3] = application time 3 min, 50% concentration, pH 2,5, right side of face, one value per subject

Compound: O=C(O)CO [AG, glycolic acid]
- average index of cutaneous irritation of AG compared to that of CCAG ([1]; 10% concentration): significantly and appreciably higher
- average index of cutaneous irritation of free glycolic acid compared to that of glycolic acid complexed with cyclodextrins ([1]; at comparable concentrations (5%)): slightly higher
- case of average to serious irritation after the second application, requiring suspension of the treatment ([2]; 8 subjects, right side periocular and zygomatic area): one
- irritation score (arbitrary scale 0-3), 1st application ([2]; application time 1 min, 50% concentration, pH 2,5, AG right side, CCAG left side of face, one value per subject): 0
- irritation score (arbitrary scale 0-3), 2nd application ([2]; application time 2 min, 50% concentration, pH 2,5, AG right side, CCAG left side of face, one value per subject): 2/3 and 0
- irritation score (arbitrary scale 0-3), 3rd application ([2]; application time 3 min, 50% concentration, pH 2,5, AG right side, CCAG left side of face, one value per subject): 2 and 0
- irritation score (arbitrary scale 0-3), 4th application, AG [2, 3]: 0
- irritation score (arbitrary scale 0-3), 5th application, AG [2, 3]: 0
- cases of irritation of average gravity after the third application ([2]; in vivo): 2 cases
- cases of irritation of grade 2 and 2/3 ([2]; in vivo): 3 cases
- irritation because of which subject 1 had to suspend treatment ([2]; subject 1, second application): average to serious irritation
